Results published in PMC6478789, “A chemical toolbox for the study of bromodomains and epigenetic signaling” (Nature Communications, 2019).
Where two headings read alike, the source gives them in different places.

Key:
EP300 = EP300 (Homo sapiens, UniProt Q09472); assay: Histone acetyltransferase (HAT) activity assay; assay type: biochemical; conditions: read-out: HATs Activity (%);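 also: selectivity screen of bromodomain probe compounds against histone acetyltransferases, with enzyme activity given in percent for compounds tested at 1 and 10 µM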
HAT1 = biological target: T1, HAT1 (Homo sapiens, UniProt O14929); assay: Histone acetyltransferase (HAT) activity assay; assay type: biochemical; conditions: read-out: HATs Activity (%);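 also: HAT selectivity screen of BRD probe compounds, enzyme activity in % measured with compound at 1 µM and 10 µM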
T1 sequence (O14929 1-419): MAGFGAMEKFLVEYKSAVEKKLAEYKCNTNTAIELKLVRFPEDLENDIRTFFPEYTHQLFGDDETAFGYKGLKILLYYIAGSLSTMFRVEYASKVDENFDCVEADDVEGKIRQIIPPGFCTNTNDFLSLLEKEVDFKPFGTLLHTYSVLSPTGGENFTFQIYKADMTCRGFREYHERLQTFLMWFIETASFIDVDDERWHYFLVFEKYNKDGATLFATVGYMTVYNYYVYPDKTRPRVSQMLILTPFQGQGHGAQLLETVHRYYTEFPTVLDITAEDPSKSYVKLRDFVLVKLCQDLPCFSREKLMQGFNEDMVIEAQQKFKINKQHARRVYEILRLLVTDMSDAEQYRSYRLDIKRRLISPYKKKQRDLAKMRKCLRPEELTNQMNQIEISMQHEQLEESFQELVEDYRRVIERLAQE

MYST1 = biological target: T2, MYST1 (Homo sapiens, UniProt Q9H7Z6); assay: Histone acetyltransferase (HAT) activity assay; assay type: biochemical; conditions: read-out: HATs Activity (%);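 also: selectivity screen across a panel of histone acetyltransferases, with compounds tested at 1 and 10 µM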
T2 sequence (Q9H7Z6 1-458): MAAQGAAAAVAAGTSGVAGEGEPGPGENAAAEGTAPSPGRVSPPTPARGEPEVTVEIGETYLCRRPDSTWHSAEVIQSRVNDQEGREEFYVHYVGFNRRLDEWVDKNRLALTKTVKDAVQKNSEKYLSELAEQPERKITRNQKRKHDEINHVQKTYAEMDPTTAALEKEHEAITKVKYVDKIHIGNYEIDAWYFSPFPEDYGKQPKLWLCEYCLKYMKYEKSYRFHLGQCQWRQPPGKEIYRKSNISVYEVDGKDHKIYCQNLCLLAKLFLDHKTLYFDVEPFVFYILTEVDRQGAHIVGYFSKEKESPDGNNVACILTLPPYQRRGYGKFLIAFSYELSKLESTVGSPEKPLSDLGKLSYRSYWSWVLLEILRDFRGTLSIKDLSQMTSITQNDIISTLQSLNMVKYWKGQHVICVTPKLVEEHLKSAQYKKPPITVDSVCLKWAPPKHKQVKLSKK

MYST3 = MYST3 (Homo sapiens, UniProt Q92794); assay: Histone acetyltransferase (HAT) activity assay; assay type: biochemical; conditions: read-out: HATs Activity (%);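 also: selectivity screen of bromodomain probe compounds across a panel of histone acetyltransferases, read out as enzyme activity in %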
GCN5L2 = GCN5L2 (Homo sapiens, UniProt Q92830); assay: Histone acetyltransferase (HAT) activity assay; assay type: biochemical; conditions: read-out: HATs Activity (%);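 also: selectivity screen of BRD probe compounds across a panel of histone acetyltransferases, HAT activity in % with compound at 1 or 10 µM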
ATAD2A = biological target: T3, ATAD2A (Homo sapiens, UniProt Q6PL18); assay: BROMOscan ligand-binding assay
T3 sequence (Q6PL18 980-1092 limits assumed): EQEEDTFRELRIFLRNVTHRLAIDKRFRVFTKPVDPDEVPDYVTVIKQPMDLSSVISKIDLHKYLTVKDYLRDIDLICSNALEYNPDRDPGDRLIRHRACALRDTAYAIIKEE
Source text: (§1) BROMOscan is a binding assay based on the well-known KINOMEscan technology. This assay measures the binding of a DNA-tagged bromodomain to an immobilized BRD ligand. If an inhibitor is present, it will compete with the bromodomain binding to the immobilized ligand, resulting in reduction of a quantitative PCR (qPCR) signal in a dose-dependent manner.

BAZ2B = biological target: T4, BAZ2B (Homo sapiens, UniProt Q9UIF8); assay: BROMOscan ligand-binding assay
T4 sequence (Q9UIF8 2060-2164 limits assumed): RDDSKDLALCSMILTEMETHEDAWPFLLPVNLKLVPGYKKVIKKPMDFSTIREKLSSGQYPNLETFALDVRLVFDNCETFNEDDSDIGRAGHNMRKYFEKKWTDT
Source text: as §1

BRD1 = biological target: T5, BRD1 (Homo sapiens, UniProt O95696); assay: BROMOscan ligand-binding assay
T5 sequence (O95696 562-666 limits assumed): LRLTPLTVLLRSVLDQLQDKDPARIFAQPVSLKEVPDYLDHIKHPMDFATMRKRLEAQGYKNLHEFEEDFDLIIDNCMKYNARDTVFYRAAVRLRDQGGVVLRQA
Source text: as §1

BRD7 = biological target: T6, BRD7 (Homo sapiens, UniProt Q9NPI1); assay: BROMOscan ligand-binding assay
T6 sequence (Q9NPI1 131-235 limits assumed): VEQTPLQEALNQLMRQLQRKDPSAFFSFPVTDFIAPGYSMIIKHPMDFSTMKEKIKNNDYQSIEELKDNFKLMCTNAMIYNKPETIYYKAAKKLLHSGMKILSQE
Source text: as §1

BRD8(2) = BRD8(2) (Homo sapiens, UniProt Q9H0E9); assay: BROMOscan ligand-binding assay
Source text: as §1

BRD9 = biological target: T7, BRD9 (Homo sapiens, UniProt Q9H8M2); assay: BROMOscan ligand-binding assay
T7 sequence (Q9H8M2 136-240 limits assumed): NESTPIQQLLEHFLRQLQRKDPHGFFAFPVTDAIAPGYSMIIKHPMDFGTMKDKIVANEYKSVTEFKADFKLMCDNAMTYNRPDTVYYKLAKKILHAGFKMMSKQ
Source text: as §1

BRDT(1) = BRDT(1) (Homo sapiens, UniProt Q58F21); assay: BROMOscan ligand-binding assay
Source text: as §1

BRDT(1,2) = BRDT(1,2) (Homo sapiens, UniProt Q58F21); assay: BROMOscan ligand-binding assay
Source text: as §1

BRDT(2) = BRDT(2) (Homo sapiens, UniProt Q58F21); assay: BROMOscan ligand-binding assay
Source text: as §1

BRPF3 = biological target: T8, BRPF3 (Homo sapiens, UniProt Q9ULD4); assay: BROMOscan ligand-binding assay
T8 sequence (Q9ULD4 589-693 limits assumed): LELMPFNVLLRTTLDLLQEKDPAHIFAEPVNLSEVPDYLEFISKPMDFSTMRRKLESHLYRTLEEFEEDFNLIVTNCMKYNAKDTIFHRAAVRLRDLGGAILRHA
Source text: as §1

CREBBP = CREBBP (Homo sapiens, UniProt Q92793); assay: BROMOscan ligand-binding assay
Source text: as §1

TRIM24 = biological target: T9, TRIM24 (Homo sapiens, UniProt O15164); assay: BROMOscan ligand-binding assay
T9 sequence (O15164 899-1004 limits assumed): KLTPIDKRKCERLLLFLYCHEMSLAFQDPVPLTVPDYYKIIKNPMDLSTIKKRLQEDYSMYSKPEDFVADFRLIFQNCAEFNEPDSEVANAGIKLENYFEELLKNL
Source text: as §1

[1] = KD (BROMOscan), sheet prints no unit (nM)

BRD8(2), sequence (Q9H0E9 1099-1207 limits assumed): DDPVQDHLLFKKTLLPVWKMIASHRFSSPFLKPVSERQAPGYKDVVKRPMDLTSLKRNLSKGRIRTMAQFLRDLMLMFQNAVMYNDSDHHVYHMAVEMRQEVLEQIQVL
GCN5L2, sequence (Q92830 whole entry, species assumed): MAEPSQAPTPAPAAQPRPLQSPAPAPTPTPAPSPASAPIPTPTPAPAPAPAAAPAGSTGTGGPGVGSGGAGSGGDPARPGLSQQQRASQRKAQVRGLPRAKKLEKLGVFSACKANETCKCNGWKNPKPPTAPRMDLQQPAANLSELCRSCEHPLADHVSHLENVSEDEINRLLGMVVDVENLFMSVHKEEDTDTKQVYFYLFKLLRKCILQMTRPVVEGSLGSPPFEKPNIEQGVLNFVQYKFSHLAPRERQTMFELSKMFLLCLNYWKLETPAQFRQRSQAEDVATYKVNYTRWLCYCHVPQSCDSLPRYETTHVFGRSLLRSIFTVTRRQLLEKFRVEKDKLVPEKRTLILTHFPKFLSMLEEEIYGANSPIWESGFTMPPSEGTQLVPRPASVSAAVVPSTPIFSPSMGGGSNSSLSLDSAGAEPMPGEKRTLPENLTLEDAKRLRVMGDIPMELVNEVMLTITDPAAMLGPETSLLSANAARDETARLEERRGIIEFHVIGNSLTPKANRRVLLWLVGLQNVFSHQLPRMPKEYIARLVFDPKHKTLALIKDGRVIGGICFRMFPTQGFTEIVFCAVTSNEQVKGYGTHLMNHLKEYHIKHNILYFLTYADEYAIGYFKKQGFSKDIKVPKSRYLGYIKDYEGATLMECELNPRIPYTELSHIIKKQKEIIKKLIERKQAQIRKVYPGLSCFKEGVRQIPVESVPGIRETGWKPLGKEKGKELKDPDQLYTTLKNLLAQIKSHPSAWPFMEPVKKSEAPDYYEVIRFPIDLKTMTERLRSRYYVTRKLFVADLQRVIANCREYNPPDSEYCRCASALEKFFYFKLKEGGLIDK
EP300, sequence (Q09472 whole entry, species assumed): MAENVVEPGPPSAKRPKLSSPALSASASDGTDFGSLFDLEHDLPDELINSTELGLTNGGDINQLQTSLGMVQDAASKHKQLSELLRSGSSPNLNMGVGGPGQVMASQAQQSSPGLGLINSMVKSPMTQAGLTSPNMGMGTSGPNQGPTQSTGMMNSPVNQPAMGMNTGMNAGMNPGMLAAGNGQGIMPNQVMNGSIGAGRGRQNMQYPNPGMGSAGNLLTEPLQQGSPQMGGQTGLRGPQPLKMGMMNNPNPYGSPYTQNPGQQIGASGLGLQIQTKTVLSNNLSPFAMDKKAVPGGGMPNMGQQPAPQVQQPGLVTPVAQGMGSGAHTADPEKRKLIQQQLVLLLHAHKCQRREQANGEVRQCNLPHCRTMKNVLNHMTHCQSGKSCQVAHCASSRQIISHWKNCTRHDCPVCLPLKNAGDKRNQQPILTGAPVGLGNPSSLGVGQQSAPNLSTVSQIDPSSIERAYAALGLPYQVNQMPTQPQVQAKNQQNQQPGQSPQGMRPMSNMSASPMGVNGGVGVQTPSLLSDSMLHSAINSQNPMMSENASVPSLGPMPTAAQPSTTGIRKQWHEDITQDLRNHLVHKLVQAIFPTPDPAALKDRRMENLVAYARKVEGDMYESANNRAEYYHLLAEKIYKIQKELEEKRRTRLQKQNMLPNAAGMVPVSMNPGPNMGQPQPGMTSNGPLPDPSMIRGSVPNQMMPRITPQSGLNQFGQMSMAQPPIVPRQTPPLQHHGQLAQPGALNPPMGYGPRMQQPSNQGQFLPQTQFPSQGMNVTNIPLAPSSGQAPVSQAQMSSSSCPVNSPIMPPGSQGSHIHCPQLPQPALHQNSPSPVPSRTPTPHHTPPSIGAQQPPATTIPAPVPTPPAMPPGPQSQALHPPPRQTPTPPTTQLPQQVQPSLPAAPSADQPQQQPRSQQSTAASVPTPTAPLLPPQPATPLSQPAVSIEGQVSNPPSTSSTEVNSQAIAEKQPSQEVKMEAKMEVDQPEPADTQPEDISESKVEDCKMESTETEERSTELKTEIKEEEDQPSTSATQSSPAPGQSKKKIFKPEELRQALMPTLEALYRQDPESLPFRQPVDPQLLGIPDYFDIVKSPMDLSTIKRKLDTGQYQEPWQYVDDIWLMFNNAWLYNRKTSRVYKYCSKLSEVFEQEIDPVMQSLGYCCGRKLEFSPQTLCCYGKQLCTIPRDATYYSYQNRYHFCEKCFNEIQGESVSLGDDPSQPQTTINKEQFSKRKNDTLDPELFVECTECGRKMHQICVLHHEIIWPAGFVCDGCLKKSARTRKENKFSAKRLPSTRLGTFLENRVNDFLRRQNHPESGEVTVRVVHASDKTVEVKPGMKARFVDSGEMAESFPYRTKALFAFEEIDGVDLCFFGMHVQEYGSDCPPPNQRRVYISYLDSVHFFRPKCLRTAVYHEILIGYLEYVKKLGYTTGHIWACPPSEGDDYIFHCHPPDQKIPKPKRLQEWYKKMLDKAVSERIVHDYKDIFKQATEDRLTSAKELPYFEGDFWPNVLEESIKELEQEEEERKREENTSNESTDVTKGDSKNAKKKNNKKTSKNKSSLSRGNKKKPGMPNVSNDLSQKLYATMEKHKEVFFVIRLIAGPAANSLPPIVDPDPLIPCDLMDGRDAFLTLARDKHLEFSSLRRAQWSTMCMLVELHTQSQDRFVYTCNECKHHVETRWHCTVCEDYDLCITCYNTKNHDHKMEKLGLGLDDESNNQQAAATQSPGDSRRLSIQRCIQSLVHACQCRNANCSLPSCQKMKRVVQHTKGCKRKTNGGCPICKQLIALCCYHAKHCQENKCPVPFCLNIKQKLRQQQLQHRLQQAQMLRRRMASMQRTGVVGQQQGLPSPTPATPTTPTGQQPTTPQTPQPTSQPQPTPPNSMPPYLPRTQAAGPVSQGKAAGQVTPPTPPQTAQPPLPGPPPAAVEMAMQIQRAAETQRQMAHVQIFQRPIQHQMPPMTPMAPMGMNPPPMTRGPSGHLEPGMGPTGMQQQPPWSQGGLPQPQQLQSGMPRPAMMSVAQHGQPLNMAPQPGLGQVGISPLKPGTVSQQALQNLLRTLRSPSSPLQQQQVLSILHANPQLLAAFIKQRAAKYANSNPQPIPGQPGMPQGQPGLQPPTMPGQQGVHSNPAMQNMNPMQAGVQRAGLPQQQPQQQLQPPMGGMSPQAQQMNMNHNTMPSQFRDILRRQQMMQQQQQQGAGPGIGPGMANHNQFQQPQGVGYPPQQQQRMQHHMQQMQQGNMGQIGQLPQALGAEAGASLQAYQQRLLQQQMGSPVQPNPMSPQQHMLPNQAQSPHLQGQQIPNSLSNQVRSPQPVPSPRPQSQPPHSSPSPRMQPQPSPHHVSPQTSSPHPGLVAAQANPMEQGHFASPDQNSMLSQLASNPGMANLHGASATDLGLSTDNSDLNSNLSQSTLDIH
CREBBP, sequence (Q92793 1085-1192 limits assumed): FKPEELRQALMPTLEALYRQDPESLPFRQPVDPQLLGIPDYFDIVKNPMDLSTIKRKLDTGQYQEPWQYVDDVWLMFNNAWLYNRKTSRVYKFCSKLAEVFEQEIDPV

CCC(=O)N1CCOc2c(cc(-c3ccc(OC)c(OC)c3)cc2OCC2CCCN(C)C2)C1 (stereo not shown) [I-CBP112]
activity at 1 µM (EP300; 1µM): 97% | activity at 10 µM (EP300; 10µM): 99% | activity at 1 µM (HAT1; 1µM): 100% | activity at 10 µM (HAT1; 10µM): 94% | activity at 1 µM (MYST1; 1µM): 98% | activity at 10 µM (MYST1; 10µM): 103% | activity at 1 µM (MYST3; 1µM): 98% | activity at 10 µM (MYST3; 10µM): 99% | activity at 1 µM (GCN5L2; 1µM): 105% | activity at 10 µM (GCN5L2; 10µM): 102% | Kd (ATAD2A; [1]): > 30000 nM | Kd (ATAD2A; KD, BROMOscan Gene Symbol ATAD2A): > 100000 nM | Kd (BAZ2B; KD, BROMOscan Gene Symbol BAZ2B): 28 µM | Kd (BRD1): 51 µM | Kd (BRD7; KD, BROMOscan Gene Symbol BRD7): 7.6 µM | Kd (BRD8(2); [1]): > 30000 nM | Kd (BRD8(2); KD, BROMOscan Gene Symbol BRD8(2)): > 100000 nM | Kd (BRD9; KD, BROMOscan Gene Symbol BRD9): 25 µM | Kd (BRDT(1); KD, BROMOscan Gene Symbol BRDT(1)): 4.2 µM | Kd (BRDT(1,2); KD, BROMOscan Gene Symbol BRDT(1,2)): 9.6 µM | Kd (BRDT(2); KD, BROMOscan Gene Symbol BRDT(2)): 49 µM | Kd (BRPF3; KD, BRPF3): 95 µM | Kd (CREBBP; KD, CREBBP): 0.06 µM | Kd (TRIM24; KD, TRIM24(Bromo.)): 12 µM

CCCS(=O)(=O)c1nc(NC2CC2)cc(-c2ccc3c(ccn3C3CC(C)(C)NC(C)(C)C3)c2)n1 [NVS-CECR2-1]
activity at 1 µM (EP300): 90% | activity at 10 µM (EP300): 84% | activity at 1 µM (HAT1): 99% | activity at 10 µM (HAT1): 88% | activity at 1 µM (MYST1): 96% | activity at 10 µM (MYST1): 94% | activity at 1 µM (MYST3): 98% | activity at 10 µM (MYST3): 103% | activity at 1 µM (GCN5L2): 100% | activity at 10 µM (GCN5L2): 100% | Kd (ATAD2A): > 30000 nM | Kd (BAZ2B): > 30 µM | Kd (BRD1): > 30 µM | Kd (BRD7): 6.8 µM | Kd (BRD8(2)): > 30000 nM | Kd (BRD9): 2.1 µM | Kd (BRDT(1)): > 30 µM | Kd (BRDT(1,2)): 14 µM | Kd (BRDT(2)): > 30 µM | Kd (BRPF3): > 30 µM | Kd (CREBBP): > 30 µM | Kd (TRIM24): > 30 µM
